We go through 17 compounds from patent US7314861B2, “Melanin-concentrating hormone analogs” (priority 2001, dated 2008).

Where a SMILES comes first, the peptide text is derived from it. Bridges are numbered along the chain shown (N, C = ends). [ ]: non-standard residue; d: D form. The star is where a group is joined. Pentanoyl(5-guanidino) = NC(N)=NCCCCC(=O)* Where only a bound is given, the exact number is not on record here.

For experiment [1], the target named is human MCH-1R (Homo sapiens, UniProt Q99705). Nature of the experiment: Aequorin bioluminescence functional assay, MCH-1R. The settings on record: for MCH-1R Activation %: % Activation at 10 μM, aequorin functional assay.
human MCH-1R, sequence (Q99705 whole entry): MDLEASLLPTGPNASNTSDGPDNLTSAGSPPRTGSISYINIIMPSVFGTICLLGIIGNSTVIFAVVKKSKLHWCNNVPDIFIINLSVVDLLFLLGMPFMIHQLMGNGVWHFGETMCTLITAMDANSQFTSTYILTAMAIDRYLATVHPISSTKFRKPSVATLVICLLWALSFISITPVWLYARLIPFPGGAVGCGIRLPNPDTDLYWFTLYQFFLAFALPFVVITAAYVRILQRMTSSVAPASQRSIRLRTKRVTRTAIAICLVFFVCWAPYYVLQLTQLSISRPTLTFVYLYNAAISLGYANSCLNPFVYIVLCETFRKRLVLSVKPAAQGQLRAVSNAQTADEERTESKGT
Description: The aequorin bioluminescence assay can be used to measure the activity of G protein-coupled receptors that couple through the Gα protein subunit family consisting of Gq and G11. Such coupling leads to phospholipase C activation, intracellular calcium mobilization and protein kinase C activation.
Following approximately 40 hours of expression the apo-aequorin in the cells was charged for 4 hours with coelenterazine (10 μM) under reducing conditions (300 μM reduced glutathione) in ECB buffer (140 mM NaCl, 20 mM KCl, 20 mM HEPES-NaOH [pH=7.4], 5 mM glucose, 1 mM MgCl2, 1 mM CaCl2, 0.1 mg/ml bovine serum albumin).
The cells were harvested, washed once in ECB medium and resuspended to 500,000 cells/ml. 100 μl of cell suspension (corresponding to 5×10^4 cells) was then injected into the test plate containing MCH or MCH analogs, and the integrated light emission was recorded over 30 seconds, in 0.5 second units. 20 μL of lysis buffer (0.1% final Triton X-100 concentration) was then injected and the integrated light emission recorded over 10 seconds, in 0.5 second units. The “fractional response” values for each well were calculated by taking the ratio of the integrated response to the initial challenge to the total integrated luminescence including the Triton X-100 lysis response.
Experiment [2] addresses human MCH-R2 (Homo sapiens, UniProt Q969V1). Put plainly: Aequorin bioluminescence functional assay, MCH-2R. The conditions noted are these: for EC50: MCH-2R EC50 (nM), 293-AEQ17 cells; for EC50 / MCH-2R Activation %: aequorin functional assay; for MCH-2R Activation %: % Activation at 10 μM; for selective activity at MCH-2R over MCH-1R: greater binding and/or activation at MCH-2R than at MCH-1R.

A word on the EC50: it is the midpoint of the concentration-response curve. Read a high EC50 as a less potent agent.

human MCH-R2, sequence (Q969V1 whole entry): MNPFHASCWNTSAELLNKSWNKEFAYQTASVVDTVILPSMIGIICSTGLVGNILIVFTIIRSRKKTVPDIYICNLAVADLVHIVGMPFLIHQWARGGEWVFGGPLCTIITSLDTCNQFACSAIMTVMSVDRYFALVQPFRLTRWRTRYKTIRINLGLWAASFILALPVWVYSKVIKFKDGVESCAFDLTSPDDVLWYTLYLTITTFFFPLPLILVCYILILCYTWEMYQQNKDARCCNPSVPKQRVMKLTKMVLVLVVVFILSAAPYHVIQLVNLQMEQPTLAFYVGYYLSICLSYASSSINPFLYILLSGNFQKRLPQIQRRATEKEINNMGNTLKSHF

On to `CSCC[C@@H]1NC(=O)[C@@H](NC(=O)[C@H](CCCNC(=N)N)NC(C)=O)CSSC[C@@H](C(N)=O)NC(=O)[C@@H]2CCCN2C(=O)[C@H](CCCNC(=N)N)NC(=O)[C@H](Cc2ccc(O)cc2)NC(=O)[C@H](C(C)C)NC(=O)[C@H](CCCNC(=N)N)NC(=O)[C@@H](C)NC(=O)[C@H](CC(C)C)NC1=O` [compound 13], for which the “MCH-1R Activation %” value in experiment [1] (Table 1) turned out to be 40%. Besides, in experiment [2] (Table 1), the EC50 came to 16 nM and the “MCH-2R Activation %” value is 103%. In addition, in experiment [2], the “selective activity at MCH-2R over MCH-1R” value is listed as “selectively active”.
For the compound `CSCC[C@@H]1NC(=O)[C@@H](NC(=O)[C@H](CCCNC(=N)N)NC(C)=O)CSSC[C@@H](C(N)=O)NC(=O)[C@@H]2CCCN2C(=O)[C@H](CCCNC(=N)N)NC(=O)[C@H](Cc2ccc(O)cc2)NC(=O)[C@H](C(C)C)NC(=O)[C@H](CCCNC(=N)N)NC(=O)[C@H](CC(C)C)NC(=O)[C@H](CC(C)C)NC1=O` [compound 8], the “MCH-1R Activation %” value in experiment [1] (Table 1) stood at 106%. Moreover, in experiment [2] (Table 1), the “MCH-2R Activation %” value is reported as 80%.
Consider `CSCC[C@@H]1NC(=O)[C@@H](NC(=O)[C@H](CCCNC(=N)N)NC(C)=O)CSSC[C@@H](C(N)=O)NC(=O)[C@@H]2CCCN2C(=O)[C@H](CCCNC(=N)N)NC(=O)[C@H](Cc2ccc(O)cc2)NC(=O)[C@H](C(C)C)NC(=O)[C@H](CCCCNC(=N)N)NC(=O)CNC(=O)[C@H](CC(C)C)NC1=O` [compound 24], for which the “MCH-1R Activation %” value in experiment [1] (Table 1) amounted to 72%. In experiment [2] (Table 1), the EC50 is above 10000 nM and the “MCH-2R Activation %” value is listed as 43%.
Consider `CSCC[C@@H]1NC(=O)[C@@H](NC(=O)[C@H](CCCNC(=N)N)NC(C)=O)CSSC[C@@H](C(N)=O)NC(=O)[C@@H]2CCCN2C(=O)[C@H](CCCNC(=N)N)NC(=O)[C@H](Cc2ccc(O)cc2)NC(=O)[C@H](C(C)C)NC(=O)[C@H](CCCNC(=N)N)NC(=O)[C@@H](CC2CCCCC2)NC(=O)[C@H](CC(C)C)NC1=O` [compound 16], for which the EC50 in experiment [1] is above 10 µM. In addition, the “MCH-1R Activation %” value in experiment [1] (Table 1) amounted to 0.1%. In addition, the “selective activity at MCH-2R over MCH-1R” value in experiment [2] was “selectively active”.
With `CSCC[C@@H]1NC(=O)[C@@H](NC(=O)[C@H](CCCNC(=N)N)NC(=O)[C@H](CC(C)C)NC(=O)[C@H](CCSC)NC(=O)[C@H](CC(=O)O)NC(=O)[C@H](Cc2ccccc2)NC(=O)[C@@H](N)CC(=O)O)CSSC[C@@H](C(=O)N[C@@H](Cc2c[nH]c3ccccc23)C(=O)N[C@@H](CCC(N)=O)C(=O)N[C@@H](C)C(=O)O)NC(=O)[C@@H]2CCCN2C(=O)[C@H](CCCNC(=N)N)NC(=O)[C@H](Cc2ccc(O)cc2)NC(=O)[C@H](C(C)C)NC(=O)[C@H](CCCNC(=N)N)NC(=O)CNC(=O)[C@H](CC(C)C)NC1=O` [compound 56] (H-DFDMLRCMLGRVYRPCWQA-OH; disulfide 7-16; N-terminus and C-terminus assumed), in experiment [1] (Table 3), the “MCH-1R Activation %” value is 100%. The “MCH-2R Activation %” value in experiment [2] (Table 3) is listed as 99%.
For `CSCC[C@@H]1NC(=O)[C@@H](NC(C)=O)CSSC[C@@H](C(N)=O)NC(=O)[C@@H]2CCCN2C(=O)[C@H](CCCNC(=N)N)NC(=O)[C@H](Cc2ccc(O)cc2)NC(=O)[C@H](C(C)C)NC(=O)[C@H](CCCNC(=N)N)NC(=O)CNC(=O)[C@H](CC(C)C)NC1=O` [compound 3], the “MCH-1R Activation %” value in experiment [1] (Table 1) worked out at 6.5%.
`CSCC[C@@H]1NC(=O)[C@@H](NC(=O)[C@H](CCCNC(=N)N)NC(C)=O)CSSC[C@@H](C(N)=O)NC(=O)[C@@H]2CCCN2C(=O)[C@H](CCCNC(=N)N)NC(=O)[C@H](Cc2ccc(O)cc2)NC(=O)[C@H](C(C)C)NC(=O)[C@H](CCCNC(=N)N[N+](=O)[O-])NC(=O)CNC(=O)[C@H](CC(C)C)NC1=O` [compound 25] had an EC50 in experiment [1] above 1 µM. In addition, in experiment [2] (Table 1), the concentration for a half-maximal effect (EC50) is above 10000 nM and the “MCH-2R Activation %” value is reported as 39%. Moreover, the “selective activity at MCH-2R over MCH-1R” value in experiment [2] is given as “selectively active”.
Regarding `CSCC[C@@H]1NC(=O)[C@@H](NC(=O)[C@H](CCCNC(=N)N)NC(C)=O)CSSC[C@@H](C(N)=O)NC(=O)[C@@H]2CCCN2C(=O)[C@H](CCCNC(=N)N)NC(=O)[C@H](Cc2ccc(O)cc2)NC(=O)[C@H](C(C)C)NC(=O)[C@H](CCCNC(=N)N)NC(=O)[C@@H](Cc2ccccc2)NC(=O)[C@H](CC(C)C)NC1=O` [compound 17], the 50% effective concentration (EC50) in experiment [1] was above 10 µM. Moreover, the “MCH-1R Activation %” value in experiment [1] (Table 1) was determined as 5%. In experiment [2] (Table 1), the response was half-maximal at 25 nM (EC50) and the “MCH-2R Activation %” value came out at 102%. Further, the “selective activity at MCH-2R over MCH-1R” value in experiment [2] is “selectively active”.
Consider `CSCC[C@@H]1NC(=O)[C@@H](NC(=O)CCCCNC(=N)N)CSSC[C@@H](C(N)=O)NC(=O)[C@@H]2CCCN2C(=O)[C@H](CCCNC(=N)N)NC(=O)[C@H](Cc2ccc(O)cc2)NC(=O)[C@H](C(C)C)NC(=O)[C@H](CCCNC(=N)N)NC(=O)[C@@H](C)NC(=O)[C@H](CC(C)C)NC1=O` [compound 34] ({Pentanoyl(5-guanidino)}-CML[dA]RVYRPC-NH2; disulfide 1-10), for which the “selective activity at MCH-2R over MCH-1R” value in experiment [2] is “selectively active”.
Consider `CSCC[C@@H]1NC(=O)[C@@H](NC(=O)[C@H](CCCNC(=N)N)NC(C)=O)CSSC[C@@H](C(N)=O)NC(=O)[C@@H]2CCCN2C(=O)[C@H](CCCNC(=N)N)NC(=O)[C@H](Cc2ccc(O)cc2)NC(=O)[C@H](C(C)C)NC(=O)[C@H](CCCNC(=N)N)NC(=O)CNC(=O)[C@H](CC(C)C)NC1=O` [compound 2], for which the “MCH-1R Activation %” value in experiment [1] (Table 2) is on record as 99%.
Take `CC(=O)N[C@@H](CCCNC(=N)N)C(=O)N[C@H]1CSSC[C@@H](C(N)=O)NC(=O)[C@@H]2CCCN2C(=O)[C@H](CCCNC(=N)N)NC(=O)[C@H](Cc2ccc(O)cc2)NC(=O)[C@H](C(C)C)NC(=O)[C@H](CCCCNC(=N)N)NC(=O)[C@@H](C)NC(=O)[C@H](CC(C)C)NC(=O)[C@H](C)NC1=O` [compound 38]: the 50% effective concentration (EC50) in experiment [1] was above 10 µM. For the same compound, in experiment [1] (Table 1), the “MCH-1R Activation %” value is on record as 20%. In experiment [2] (Table 1), the “MCH-2R Activation %” value is given as 49%.
As to `CSCC[C@@H]1NC(=O)[C@@H](NC(=O)[C@H](C)NC(=O)[C@H](CC(C)C)NC(=O)[C@H](CCSC)NC(=O)[C@H](CC(=O)O)NC(=O)[C@H](Cc2ccccc2)NC(=O)[C@@H](N)CC(=O)O)CSSC[C@@H](C(=O)N[C@@H](Cc2c[nH]c3ccccc23)C(=O)N[C@@H](CCC(N)=O)C(=O)N[C@H](C(=O)O)C(C)C)NC(=O)[C@@H]2CCCN2C(=O)[C@H](CCCNC(=N)N)NC(=O)[C@H](Cc2ccc(O)cc2)NC(=O)[C@H](C(C)C)NC(=O)[C@H](CCCNC(=N)N)NC(=O)CNC(=O)[C@H](CC(C)C)NC1=O` [compound 46] (H-DFDMLACMLGRVYRPCWQV-OH; disulfide 7-16; N-terminus and C-terminus assumed), in experiment [1] (Table 3), the “MCH-1R Activation %” value amounted to 81%. The “MCH-2R Activation %” value in experiment [2] (Table 3) was 76%.
For `CSCC[C@H](NC(=O)[C@H](CC(=O)O)NC(=O)[C@H](C)NC(=O)[C@@H](N)CC(=O)O)C(=O)N[C@@H](CC(C)C)C(=O)N[C@@H](CCCNC(=N)N)C(=O)N[C@H]1CSSC[C@@H](C(=O)N[C@@H](Cc2c[nH]c3ccccc23)C(=O)N[C@@H](CCC(N)=O)C(=O)N[C@H](C(=O)O)C(C)C)NC(=O)[C@@H]2CCCN2C(=O)[C@H](CCCNC(=N)N)NC(=O)[C@H](Cc2ccc(O)cc2)NC(=O)[C@H](C(C)C)NC(=O)[C@H](CCCNC(=N)N)NC(=O)CNC(=O)[C@H](CC(C)C)NC(=O)[C@H](CCSC)NC1=O` [compound 42] (H-DADMLRCMLGRVYRPCWQV-OH; disulfide 7-16; N-terminus and C-terminus assumed), the “MCH-1R Activation %” value in experiment [1] (Table 3) is 97%. In addition, the “MCH-2R Activation %” value in experiment [2] (Table 3) is listed as 102%.
As for `CSCC[C@@H]1NC(=O)[C@@H](NC(=O)[C@H](CCCNC(=N)N)NC(C)=O)CSSC[C@@H](C(N)=O)NC(=O)[C@@H]2CCCN2C(=O)[C@H](CCCNC(=N)N)NC(=O)[C@H](Cc2ccc(O)cc2)NC(=O)[C@H](C(C)C)NC(=O)[C@H](CCCNC(=N)N)NC(=O)[C@H](c2ccccc2)NC(=O)[C@H](CC(C)C)NC1=O` [compound 12], the 50% effective concentration (EC50) in experiment [1] was above 10 µM. For the same compound, the “MCH-1R Activation %” value in experiment [1] (Table 1) amounted to 0.1%. Also, in experiment [2] (Table 1), the concentration for a half-maximal effect (EC50) stood at 140 nM and the “MCH-2R Activation %” value is 80%. Also, in experiment [2], the “selective activity at MCH-2R over MCH-1R” value is recorded as “selectively active”.
Turning to `CSCC[C@@H]1NC(=O)[C@@H](NC(=O)[C@H](CCCNC(=N)N)NC(=O)[C@H](CC(C)C)NC(=O)[C@H](CCSC)NC(=O)[C@H](CC(=O)O)NC(=O)[C@H](Cc2ccccc2)NC(=O)[C@H](C)N)CSSC[C@@H](C(=O)N[C@@H](Cc2c[nH]c3ccccc23)C(=O)N[C@@H](CCC(N)=O)C(=O)N[C@H](C(=O)O)C(C)C)NC(=O)[C@@H]2CCCN2C(=O)[C@H](CCCNC(=N)N)NC(=O)[C@H](Cc2ccc(O)cc2)NC(=O)[C@H](C(C)C)NC(=O)[C@H](CCCNC(=N)N)NC(=O)CNC(=O)[C@H](CC(C)C)NC1=O` [compound 41] (H-AFDMLRCMLGRVYRPCWQV-OH; disulfide 7-16; N-terminus and C-terminus assumed), in experiment [1] (Table 3), the “MCH-1R Activation %” value worked out at 96%. Moreover, the “MCH-2R Activation %” value in experiment [2] (Table 3) is on record as 96%.
For `CSCC[C@@H]1NC(=O)[C@@H](NC(=O)[C@H](CCCNC(=N)N)NC(C)=O)CSSC[C@@H](C(N)=O)NC(=O)[C@@H]2CCCN2C(=O)[C@H](CCCNC(=N)N)NC(=O)[C@H](Cc2ccc(O)cc2)NC(=O)[C@H](C(C)C)NC(=O)[C@H](CCCNC(=N)N)NC(=O)[C@H](C)NC(=O)[C@H](CC(C)C)NC1=O` [compound 7], the “MCH-1R Activation %” value in experiment [1] (Table 1) is 104%. Moreover, the “MCH-2R Activation %” value in experiment [2] (Table 1) worked out at 97%.
Consider `CSCC[C@@H]1NC(=O)[C@@H](NC(=O)[C@H](CCCNC(=N)N)NC(C)=O)CSSC[C@@H](C(N)=O)NC(=O)[C@@H]2CCCN2C(=O)[C@H](CCCNC(=N)N)NC(=O)[C@H](Cc2ccc(O)cc2)NC(=O)[C@H](C(C)C)NC(=O)[C@H](CCCNC(=N)N)NC(=O)C(C)(C)NC(=O)[C@H](CC(C)C)NC1=O` [compound 11], for which, in experiment [1] (Table 1), the “MCH-1R Activation %” value was found to be 22%. Further, in experiment [2] (Table 1), a half-maximal effect (EC50) was put at 24 nM and the “MCH-2R Activation %” value is recorded as 104%. The “selective activity at MCH-2R over MCH-1R” value in experiment [2] is on record as “selectively active”.
